Assay results as given in patent publication US20090081717A1, “Compositions and Methods For Signal Generation” (priority 2007, published 2009).
Where two headings read alike, the source gives them in different places.

What was measured:
[1] = Chemiluminescence of indoxyl phosphate substrate solution with blank sample (no enzyme); assay type: biochemical; conditions: blank sample 0.1 M Tris, pH 9.0, no enzyme
[2] = system: alkaline phosphatase; conditions: 1×10^−12 moles alkaline phosphatase in 0.1 M Tris, pH 9.0, 45 sec at room temperature, measured 1 sec
Experimental: A substrate solution containing 0.8 mg/ml 3-indoxyl phosphate bis(2-amino-2-methyl-1,3-propanediol) salt (Biosynth International) and 0.4 mg/ml lucigenin (Sigma Aldrich) was prepared in 0.1 M Tris buffer, pH 9.0. 10 ul of the sample (blank (0.1 M Tris, pH 9.0 or 1×10^−12 moles alkaline phosphatase in 0.1 M Tris, pH 9.0) was added to plastic tubes. 50 ul of the substrate containing 0% DMSO, 0.1% DMSO (v/v), 1% DMSO) (v/v), 10% DMSO (v/v) and 20% DMSO (v/v) was added to respective tubes and water was added to the substrate in appropriate percentage as a control. The reaction was incubated for 45 sec at room temperature and chemiluminescence was measured for 1 sec using an Optocomp I (MGM) luminometer.

SMILES: CC(N)(CO)CO.CC(N)(CO)CO.O=P(O)(O)Oc1c[nH]c2ccccc12 [3-indoxyl phosphate bis(2-amino-2-methyl-1,3-propanediol) salt]
- Blank chemiluminescence ([1]; substrate with 0 vol % DMSO): 472 Relative light units
- Blank chemiluminescence ([1]; substrate with 0.1 vol % DMSO): 511 Relative light units
- Blank chemiluminescence ([1]; substrate with 1 vol % DMSO): 569 Relative light units
- Blank chemiluminescence ([1]; substrate with 10 vol % DMSO): 1214 Relative light units
- Blank chemiluminescence ([1]; substrate with 20 vol % DMSO): 1917 Relative light units
- Alkaline phosphatase chemiluminescence ([2]; substrate with 0 vol % DMSO): 895,068 Relative light unit
- Alkaline phosphatase chemiluminescence ([2]; substrate with 0.1 vol % DMSO): 899,207 Relative light unit
- Alkaline phosphatase chemiluminescence ([2]; substrate with 1 vol % DMSO): 1,101,369 Relative light unit
- Alkaline phosphatase chemiluminescence ([2]; substrate with 10 vol % DMSO): 1,909,745 Relative light unit
- Alkaline phosphatase chemiluminescence ([2]; substrate with 20 vol % DMSO): 2,375,681 Relative light unit
